Results reported in ChEMBL document CHEMBL1132761, “Novel Dmt-Tic dipeptide analogues as selective delta-opioid receptor antagonists” (Bioorg Med Chem Lett, 2000).
Non-standard residues stand in square brackets, D forms with d. Residues, ends and D or L forms follow the SMILES beside them. Dmt = Cc1cc(O)cc(C)c1C[C@H](N)C(=O)O; Tic = O=C(O)[C@@H]1Cc2ccccc2CN1

What was measured:
[1] = biological target: Kappa-type opioid receptor (Homo sapiens, UniProt P41145); test: Compound was evaluated for binding affinity towards Opioid receptor kappa 1 by displacing 125 I-DPDYN
Sequence of Kappa-type opioid receptor (P41145 whole entry): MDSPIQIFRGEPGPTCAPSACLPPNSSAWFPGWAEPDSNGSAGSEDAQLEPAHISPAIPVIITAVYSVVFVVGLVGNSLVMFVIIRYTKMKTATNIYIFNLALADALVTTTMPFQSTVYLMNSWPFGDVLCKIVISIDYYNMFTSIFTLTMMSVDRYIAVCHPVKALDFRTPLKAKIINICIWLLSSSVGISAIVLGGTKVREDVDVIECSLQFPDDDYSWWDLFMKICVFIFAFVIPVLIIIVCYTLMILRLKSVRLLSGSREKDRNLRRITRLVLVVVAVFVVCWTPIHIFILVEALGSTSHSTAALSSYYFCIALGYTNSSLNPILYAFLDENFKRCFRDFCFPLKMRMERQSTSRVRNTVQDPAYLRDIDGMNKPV

[2] = biological target: T1, Delta-type opioid receptor (Homo sapiens, UniProt P41143); test: Compound was evaluated for binding affinity towards Opioid receptor delta 1 by displacing 125 I-deltorphin II
T1 sequence (P41143 whole entry): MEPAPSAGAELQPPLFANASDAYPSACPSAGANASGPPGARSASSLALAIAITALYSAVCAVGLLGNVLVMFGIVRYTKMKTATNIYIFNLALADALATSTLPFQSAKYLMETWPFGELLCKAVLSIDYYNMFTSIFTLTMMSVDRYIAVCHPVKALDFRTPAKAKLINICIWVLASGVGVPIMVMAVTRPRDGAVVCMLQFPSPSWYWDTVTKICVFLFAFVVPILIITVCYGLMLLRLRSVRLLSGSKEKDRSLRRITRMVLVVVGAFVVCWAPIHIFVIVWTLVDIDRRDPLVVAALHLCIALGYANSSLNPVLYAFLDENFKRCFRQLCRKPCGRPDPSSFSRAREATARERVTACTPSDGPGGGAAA

Mu-type opioid receptor = Mu-type opioid receptor (Homo sapiens, UniProt P35372); test: Compound was evaluated for binding affinity towards Opioid receptor mu 1 by displacing 125 I-FK-33824
Sequence of Mu-type opioid receptor (P35372 whole entry): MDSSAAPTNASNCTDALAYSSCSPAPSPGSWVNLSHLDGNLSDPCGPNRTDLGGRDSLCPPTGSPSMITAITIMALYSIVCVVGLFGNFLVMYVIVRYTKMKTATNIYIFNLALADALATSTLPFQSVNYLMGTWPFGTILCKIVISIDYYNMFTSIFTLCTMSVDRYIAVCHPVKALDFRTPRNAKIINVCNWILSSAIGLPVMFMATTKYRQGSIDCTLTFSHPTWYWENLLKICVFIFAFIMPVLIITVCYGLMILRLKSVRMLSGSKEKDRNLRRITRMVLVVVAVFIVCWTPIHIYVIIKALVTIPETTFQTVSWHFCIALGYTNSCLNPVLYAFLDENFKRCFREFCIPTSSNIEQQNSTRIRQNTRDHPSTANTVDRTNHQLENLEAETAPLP

[3] = biological target: Opioid receptors; mu & delta (Homo sapiens) (UniProt P41143+P35372); test: Ratio of binding affinity of compound to mu receptor compared to that of delta receptor (Mu/Delta); assay type: protein assay
Sequence of Opioid receptors; mu & delta (Homo sapiens) (P35372 whole entry, looked up): as the sequence (P35372 whole entry) above
Sequence of Opioid receptors; mu & delta (Homo sapiens) (P41143 whole entry, looked up): as the sequence (P41143 whole entry) above

[4] = biological target: T1, Delta-type opioid receptor; test: Compound was tested for its ability to block the effect of selective delta opioid agonist SNC-80 in the functional assay
[5] = biological target: T1, Delta-type opioid receptor; test: Effective concentration for agonistic activity towards delta opioid receptor was determined by [35S]GTP-gamma-S functional assay

SMILES	IC50 [1]	IC50 [2]	IC50 (Mu-type opioid receptor)	Ratio [3]	Ke [4]	EC50 [5]
COc1ccc2c(c1)CN(C(=O)C(N)Cc1c(C)cc(O)cc1C)[C@H](C(=O)O)C2 (stereo partly drawn)	9 µM	0.0109 µM	2.28 µM	211	–	–
COc1cc2c(cc1-c1ccccc1)C[C@@H](C(=O)O)N(C(=O)C(N)Cc1c(C)cc(O)cc1C)C2 (stereo partly drawn)	> 10 µM	2.54 µM	> 10 µM	–	–	–
Cc1cc(O)cc(C)c1C[C@H](N)C(=O)N1Cc2cc(-c3ccccc3)ccc2C[C@H]1C(=O)O	5.74 µM	0.0132 µM	0.635 µM	48.1	–	–
COc1ccc(-c2ccc3c(c2)CN(C(=O)[C@@H](N)Cc2c(C)cc(O)cc2C)[C@H](C(=O)O)C3)cc1	> 10 µM	0.0058 µM	1.14 µM	211	–	–
Cc1cc(O)cc(C)c1C[C@@H](N)C(=O)N1Cc2cc(-c3ccccc3)ccc2C[C@H]1C(=O)O	> 10 µM	0.122 µM	1.94 µM	15.9	–	–
COc1c(Br)cc2c(c1Br)CN(C(=O)[C@H](N)Cc1c(C)cc(O)cc1C)[C@H](C(=O)O)C2	–	0.571 µM	8.24 µM	14.4	–	–
Cc1cc(O)cc(C)c1C[C@H](N)C(=O)N1Cc2cc(-c3ccc(F)cc3)ccc2C[C@H]1C(=O)O	7.56 µM	0.0038 µM	0.587 µM	155	11.5 nM	–
Cc1cc(O)cc(C)c1CC(N)C(=O)N1Cc2cc(O)ccc2C[C@H]1C(=O)O (stereo partly drawn)	9.29 µM	0.236 µM	2.16 µM	9.2	–	–
Cc1cc(O)cc(C)c1CC(N)C(=O)N1Cc2cc(-c3ccsc3)ccc2C[C@H]1C(=O)O (stereo partly drawn)	2.73 µM	0.0135 µM	0.142 µM	10.5	–	–
Cc1cc(O)cc(C)c1CC(N)C(=O)N1Cc2cc(-c3cc4ccccc4o3)ccc2C[C@H]1C(=O)O (stereo partly drawn)	> 10 µM	0.0527 µM	2.44 µM	–	–	–
Cc1cc(O)cc(C)c1C[C@H](N)C(=O)N1Cc2c(cc(Br)c(O)c2Br)C[C@H]1C(=O)O	> 10 µM	1.08 µM	1.24 µM	1.1	–	–
Cc1cc(O)cc(C)c1C[C@@H](N)C(=O)N1Cc2cc(-c3ccc(F)cc3)ccc2C[C@H]1C(=O)O	> 10 µM	0.0817 µM	–	–	–	–
Cc1cc(O)cc(C)c1C[C@H](N)C(=O)N1Cc2ccccc2C[C@H]1C(=O)O (H-[Dmt]-[Tic]-OH)	37.5 µM	0.0016 µM	0.894 µM	558	5.3 nM	–
COc1ccc(-c2ccc3c(c2)CN(C(=O)C(N)Cc2c(C)cc(O)cc2C)[C@H](C(=O)O)C3)cc1 (stereo partly drawn)	> 10 µM	0.0049 µM	2.65 µM	546	38.6 nM	–
COc1ccc2c(c1)CN(C(=O)[C@@H](N)Cc1c(C)cc(O)cc1C)[C@H](C(=O)O)C2	9.44 µM	0.0121 µM	2.87 µM	237	–	–
COc1ccc(-c2cc3c(cc2OC)CN(C(=O)C(N)Cc2c(C)cc(O)cc2C)[C@H](C(=O)O)C3)cc1 (stereo partly drawn)	> 10 µM	1.52 µM	4.64 µM	3.1	–	–
COc1c(Br)cc2c(c1Br)CN(C(=O)[C@@H](N)Cc1c(C)cc(O)cc1C)[C@H](C(=O)O)C2	> 10 µM	0.0025 µM	1.67 µM	505	–	0.028 µM
Cc1cc(O)cc(C)c1C[C@@H](N)C(=O)N1Cc2c(cc(Br)c(O)c2Br)C[C@H]1C(=O)O	–	> 10 µM	8.13 µM	–	–	–
COc1cc2c(cc1-c1ccc(F)cc1)C[C@@H](C(=O)O)N(C(=O)C(N)Cc1c(C)cc(O)cc1C)C2 (stereo partly drawn)	> 10 µM	1.16 µM	7.22 µM	6.2	–	–
